# Data from paper PMC8431481, “Peptide Derivatives of the Zonulin Inhibitor Larazotide (AT1001) as Potential Anti SARS-CoV-2: Molecular Modelling, Synthesis and Bioactivity Evaluation” (International Journal of Molecular Sciences, 2021).
# Read-outs that look alike come from different tables or passages of the source. Where a SMILES comes first, the peptide text is derived from it. The star is where a group is joined. Piv = CC(C)(C)C(=O)*
# Legend:
# [1] = tested on: varicella-zoster virus (VZV) wild-type strain Oka; conditions: read-out: Antiviral Activity (EC50) TK+ VZV Strain OKA; HEL cells, virus input 20 PFU
# [2] = tested on: thymidine kinase deficient (TK−) VZV strain 07−1; conditions: read-out: Antiviral Activity (EC50) TK-VZV Strain 07–1; HEL cells, virus input 20 PFU
# [3] = tested on: human embryonic lung (HEL) fibroblasts; assay: Cytotoxicity, cell morphology (MCC) in HEL cells
# [4] = tested on: human embryonic lung (HEL) fibroblasts; assay: Cytostatic activity, cell growth (CC50) in HEL cells; conditions: read-out: Cytotoxicity Cell Growth (CC50); HEL cells, Table 3 (VZV tests)
# [5] = tested on: Vero cells
# [6] = in vitro; conditions: African green monkey
# [7] = tested on: SARS-CoV-2 clinical strain UC-1074; assay: microbe, parasite or virus in culture; conditions: Severe acute respiratory syndrome coronavirus 2, UC1074, Vero, 120 h, read-out: Antiviral Activity (EC50) UC-1074
# [8] = tested on: SARS-CoV-2 clinical strain UC-1075; assay: microbe, parasite or virus in culture; conditions: Severe acute respiratory syndrome coronavirus 2, UC1075, Vero, 120 h, read-out: Antiviral Activity (EC50) UC-1075
# [9] = target: T1, recombinant SARS-CoV-2 M^pro (Severe acute respiratory syndrome coronavirus 2, UniProt P0DTD1); format: biochemical; conditions: relative to concentration range 0.1–1 µM
# T1 construct: The virus enzyme, called 3CLpro or main protease (M^pro), is essential for viral replication; purchased Proteros
# [10] = tested on: SARS-CoV-2 clinical strain UC-1074; conditions: for activity against SARS-CoV-2 (in words): Vero cells, strains UC-1074 and UC-1075; for EC50: clinical strain UC-1074, 24 h
# [11] = tested on: SARS-CoV-2 clinical strain UC-1075; conditions: clinical strain UC-1075, 24 h
# [12] = tested on: human cytomegalovirus (HCMV) strain AD-169; conditions: read-out: Antiviral Activity (EC50) AD-169 Strain; HEL cells, virus input 100 CCID50
# [13] = tested on: human cytomegalovirus (HCMV) strain Davis; conditions: read-out: Antiviral Activity (EC50) Davis Strain; HEL cells, virus input 100 CCID50
# [14] = tested on: human cytomegalovirus (HCMV) strain AD-169; assay: microbe, parasite or virus in culture; conditions: Human betaherpesvirus 5, AD169, HEL, read-out: Antiviral Activity (EC50) AD-169 Strain
# [15] = tested on: human cytomegalovirus (HCMV) strain Davis; assay: microbe, parasite or virus in culture; conditions: Human betaherpesvirus 5, HEL, read-out: Antiviral Activity (EC50) Davis Strain
# [16] = Cytostatic activity, cell growth (CC50) in HEL cells; conditions: human, HEL 299 human embryonic lung fibroblasts
# [17] = tested on: varicella-zoster virus (VZV) wild-type strain Oka; assay: microbe, parasite or virus in culture; conditions: Human alphaherpesvirus 3, HEL, read-out: Antiviral Activity (EC50) TK+ VZV Strain OKA
# [18] = tested on: SARS-CoV-2; conditions: read-out: EC50 (reported value); cited from earlier work
Structure (SMILES),EC50 [1],EC50 [2],Cytotoxicity Cell Morphology (MCC) ([3]; Table 3 (VZV tests)),Cytotoxicity Cell Morphology (MCC) ([5]; Vero cells),CC50 [6],Inhibition [9],EC50 [10],EC50 [11],EC50 [12],EC50 [13],Cytotoxicity Cell Morphology (MCC) ([3]; Table 2 (HCMV tests)),further results
"O=c1[nH]c(=O)n([C@H]2C[C@H](O)[C@@H](CO)O2)cc1/C=C/Br [Birivudine, reference compound]",0.23 ± 0.04 µM,2.13 µM,>300.3 µM,–,–,–,–,–,–,–,–,CC50 [4]: > 300 µM
"CCC(CC)COC(=O)[C@H](C)N[P@](=O)(OC[C@H]1O[C@@](C#N)(c2ccc3c(N)ncnn23)[C@H](O)[C@@H]1O)Oc1ccccc1 [Remdesivir, reference compound]",–,–,–,100 µM,70.6 ± 4.9 µM,–,–,–,–,–,–,EC50 [7]: 0.89 ± 0.44 µM; EC50 [8]: 1.06 ± 0.44 µM
CNC(=O)CNC(=O)[C@@H]1CCCN1C(=O)[C@H](CCC(N)=O)NC(=O)[C@@H](NC(=O)[C@H](CC(C)C)NC(=O)[C@@H](NC(=O)CNC(=O)CNC(C)=O)C(C)C)C(C)C [Peptide 3] (Ac-GGVLVQPG-NHMe),58.1 µM,81.1 µM,>100 µM,100 µM,81.8 ± 2.1 µM,27.4 ± 1.1%,> 20 µM,> 20 µM,> 20 µM,> 100 µM,≥20 µM,activity against SARS-CoV-2 (in words) [10]: negligible activity
CNC(=O)CNC(=O)[C@@H]1CCCN1C(=O)[C@H](CCC(N)=O)NC(=O)[C@@H](NC(=O)[C@H](CC(C)C)NC(=O)[C@@H](NC(=O)CNC(=O)CNC(=O)C(C)(C)C)C(C)C)C(C)C [Peptide 4] (Piv-GGVLVQPG-NHMe),78.2 µM,> 100 µM,≥100 µM,100 µM,74.9 ± 4.9 µM,26.2 ± 0.3%,≥ 20 µM,> 20 µM,> 20 µM,100 µM,100 µM,–
"CNC(=O)[C@H](CCC(N)=O)NC(=O)[C@@H](NC(=O)[C@H](CC(C)C)NC(=O)[C@@H](NC(=O)CNC(C)=O)C(C)C)C(C)C [Peptide 5, Ac-GVLVQ-NHCH3] (Ac-GVLVQ-NHMe)",59.8 µM,> 100 µM,>100 µM,100 µM,75 ± 2.2 µM,27.0 ± 1.1%,> 20 µM,> 20 µM,> 20 µM,> 100 µM,≥100 µM,activity against SARS-CoV-2 (in words) [10]: negligible activity
"CNC(=O)[C@@H](NC(=O)[C@H](CC(C)C)NC(=O)[C@@H](NC(=O)CNC(C)=O)C(C)C)C(C)C [Peptide 6, Ac-GVLV-NHCH3] (Ac-GVLV-NHMe)",> 20 µM,> 20 µM,100 µM,100 µM,77.4 ± 0.7 µM,25.0 ± 0.5%,≥ 20 µM,> 20 µM,> 4 µM,> 20 µM,≥20 µM,–
Nc1ccn(C[C@@H](CO)OCP(=O)(O)O)c(=O)n1 [Cidofovir],–,–,–,–,–,–,–,–,–,–,≥317 µM,EC50 [14]: 1.27 ± 0.18 µM; EC50 [15]: 0.67 ± 0.49 µM; CC50 at 3 days [16]: 159 ± 76.5 µM
Nc1nc(O)c2ncn(COC(CO)CO)c2n1 [Ganciclovir],–,–,–,–,–,–,–,–,–,–,≥394 µM,EC50 [14]: 2.56 ± 0.23 µM; EC50 [15]: 1.18 µM; CC50 at 3 days [16]: 350 µM
Nc1nc2c(ncn2COCCO)c(=O)[nH]1 [Aciclovir],–,–,–,–,–,–,–,–,–,–,–,EC50 [17]: 8.39 µM
CC(=O)NCC(=O)NCC(=O)N[C@H](C(=O)N[C@@H](CC(C)C)C(=O)N[C@H](C(=O)N[C@@H](CCC(N)=O)C(=O)N1CCC[C@H]1C(=O)NCC(N)=O)C(C)C)C(C)C [Peptide 2] (Ac-GGVLVQPG-NH2),50.1 µM,48.4 µM,>100 µM,100 µM,83 ± 17 µM,27.1 ± 0.5%,–,> 20 µM,> 20 µM,> 20 µM,≥20 µM,–
Cc1cc(C(=O)NC(C)C(=O)NC(C(=O)NC(CC(C)C)C(=O)NC(C=CC(=O)OCc2ccccc2)CC2CCNC2=O)C(C)C)no1 (stereo not shown) [Peptide N3],–,–,–,–,–,–,–,–,–,–,–,EC50 [18]: 16.8 ± 1.7 µM
"CC(C)C[C@H](NC(=O)[C@@H](NC(=O)CNC(=O)CN)C(C)C)C(=O)N[C@H](C(=O)N[C@@H](CCC(N)=O)C(=O)N1CCC[C@H]1C(=O)NCC(=O)O)C(C)C [AT1001 (1), Larazotide acetate, reference compound] (H-GGVLVQPG-OH)",44.1 µM,59.1 µM,≥100 µM,–,82.5 ± 6.2 µM,27.7 ± 0.2%,> 20 µM,> 20 µM,> 20 µM,> 20 µM,≥100 µM,Cytotoxicity Cell Morphology (MCC) [5]: 100 µM
